Data taken from patent publication US11905230B2, “Phenoxyacetic acid derivatives, preparation method thereof and use thereof as medicament” (CHINA PHARMACEUTICAL UNIVERSITY, priority 2017, dated 2024).
One block for each compound: values may come before it.

What was measured:
hGPR40 receptor = hGPR40 receptor (Homo sapiens (Human), UniProt O14842); experiment: agonistic activity on hGPR40-CHO stably transfected cells (Fluo-4 / FLIPR); assay type: cell-based; details: for activation at 0.1 µM / Agonistic activity at 100 nM (%): 100 nM, relative to linoleic acid well; for EC50: mean ± SD of three determinations
Chain of hGPR40 receptor (O14842 whole entry): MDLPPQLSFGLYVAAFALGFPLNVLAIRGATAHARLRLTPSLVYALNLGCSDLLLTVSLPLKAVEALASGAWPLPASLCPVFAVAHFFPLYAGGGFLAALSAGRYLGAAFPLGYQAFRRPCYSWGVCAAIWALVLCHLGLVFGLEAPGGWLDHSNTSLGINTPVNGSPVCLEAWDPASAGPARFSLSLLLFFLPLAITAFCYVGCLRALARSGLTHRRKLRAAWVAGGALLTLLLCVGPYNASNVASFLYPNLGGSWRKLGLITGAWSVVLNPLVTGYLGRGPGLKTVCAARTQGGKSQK
Description: Experimental example 1 The agonistic activity of the compounds of the present invention on hGPR40-CHO stably transfected cells
The present invention used the following method to determine the GPR40 agonistic activity of the compounds of the invention:
hGPR40-CHO stably transfected cells were seeded into a 96-well plate at a density of 3×10^4/well, and incubated overnight in a 37° C., 5% CO2 cell incubator; the medium was discarded, 100 μl of HBSS was added to each well, and 100 μl of Fluo-4 dye solution containing Probenecid was added and incubated at 37° C. for 90 min. After the incubation, the Fluo-4 dye solution was sucked out, 100 μl of HBSS buffer was added, and the dye was washed away; 100 μl of HBSS containing Probenecid was added to each well, and incubated at 37° C. for 10 min; different concentrations of drugs were added to each well of the 96-well plate and FLIPR (Molecular Devices) was used for readings according to the parameter setting table. The experimental results were analyzed.

normal mice = experiment: Oral glucose tolerance test (OGTT) in normal mice; assay type: in vivo, Kunming mice; details: for effect on oral glucose tolerance in mice (in words): OGTT in normal mice, 20 mg/kg; for blood glucose level at 15 min / blood glucose level at 0 min / blood glucose level at 30 min / blood glucose level at 60 min / blood glucose level at 120 min: 20 mg/kg by gavage, in mmol/L (unit assumed); for blood glucose level at 15 min: 15 min after glucose load; for blood glucose level at 0 min: 30 min after dosing, before glucose load; for blood glucose level at 30 min: 30 min after glucose load; for blood glucose level at 60 min: 60 min after glucose load; for blood glucose level at 120 min: 120 min after glucose load
Description: Experimental example 2 In vivo hypoglycemic activity of the compounds of the present invention can be determined by using an assay system as described below:
The mice were fasted for 12 hours before experiment and water was taken freely, each group was administrated by gavage, blood was taken from the tail, and the blood glucose level was measured (recorded as −30 min).

[1] = Evaluation of hepatotoxicity: serum ALT, AST and TBIL after 4 weeks of dosing; assay type: in vivo; details: for AST, ALT and TBIL compared with STZ (blank) group (in words): 4 weeks of dosing; for ALT (IU/L) / AST (IU/L) / TBIL (IU/L): serum, once a day for consecutive 4 weeks, x ± SD, n = 6
Description: Experimental example 3 Evaluation of hepatotoxicity of the compounds of the present invention:
The test compounds were administered once a day for consecutive 4 weeks, blood was taken, and the contents of alanine aminotransferase (ALT), aspartate aminotransferase (AST), and total bilirubin (TBIL) were measured.

SMILES: CCOCCOc1cc(C)c(-c2cccc(CNc3ccc(OCC(=O)O)cc3)c2)c(C)c1 [Compound I-37, 2-(4-((4′-(2-ethoxyethoxy)-2′,6′-dimethyl-[1,1′-biphenyl]-3-methylene)amino)phenoxy)acetic acid]
- activation at 0.1 µM (hGPR40 receptor): 50%
- melting point: 133 to 136 °C

SMILES: O=C(O)COc1ccc(NCc2cccc(-c3ccccc3)c2)cc1F [Compound I-11, 2-(4-(([1,1′-biphenyl]-3-methylene)amino)-2-fluorophenoxy)acetic acid]
- activation at 0.1 µM (hGPR40 receptor): 46%

SMILES: CCCCCCOc1cc(C)c(-c2cccc(CNc3ccc(OCC(=O)O)cc3)c2)c(C)c1 [Compound I-43, 2(4-(((4′-(hexyloxy)-2′,6′-dimethyl-[1,1′-biphenyl]-3-yl)methyl)amino)phenoxy)acetic acid]
- melting point: 130 to 132 °C

SMILES: COCCOc1cc(C)c(-c2cccc(CNc3ccc(OCC(=O)O)c(F)c3)c2)c(C)c1 [Compound I-10]
- activation at 0.1 µM (hGPR40 receptor): 62%

SMILES: O=C(O)COc1ccc(NCc2cccc(-c3ccccc3F)c2)cc1F [Compound I-4, 2-(4-((2′-fluoro-[1,1′-biphenyl]-3-methylene)amino)-2-fluorophenoxy)acetic acid]
- activation at 0.1 µM (hGPR40 receptor): 65%

SMILES: O=C(O)COc1ccc(NCc2cccc(-c3ccccc3C(F)(F)F)c2)cc1 [Compound I-28, 2-(4-((2′-trifluoromethyl-[1,1′-biphenyl]-3-methylene)amino)phenoxy)acetic acid]
- Agonistic activity at 100 nM (%) (hGPR40 receptor): 81%
- EC50 (hGPR40 receptor): 0.0179 ± 0.0029 µM
- effect on oral glucose tolerance in mice (in words) (normal mice): significantly improve oral glucose tolerance
- blood glucose level at 15 min (normal mice; OGTT, n = 8): 8.59 ± 0.38
- blood glucose level at 0 min (normal mice; OGTT, n = 8): 4.56 ± 0.48
- blood glucose level at 30 min (normal mice; OGTT, n = 8): 7.43 ± 0.56
- blood glucose level at 60 min (normal mice; OGTT, n = 8): 5.30 ± 0.26
- blood glucose level at 120 min (normal mice; OGTT, n = 8): 4.21 ± 0.45
- blood glucose level at −30 min (normal mice; OGTT, fasted mice, before dosing, x ± SD, n = 8): 4.35 ± 0.36
- ALT (IU/L) [1]: 49.36 ± 7.8 IU/L
- AST (IU/L) [1]: 119.68 ± 7.3 IU/L
- TBIL (IU/L) [1]: 2.57 ± 0.5 IU/L

SMILES: CC(C)c1ccccc1-c1cccc(CNc2ccc(OCC(=O)O)c(F)c2)c1 [Compound I-16]
- activation at 0.1 µM (hGPR40 receptor): 63%

SMILES: CCOc1cc(C)c(-c2cccc(CNc3ccc(OCC(=O)O)cc3)c2)c(C)c1 [Compound I-17, 2-(4-((4′-ethoxy-2′,6′-dimethyl-[1,1′-biphenyl]-3-methylene)amino)phenoxy)acetic acid]
- Agonistic activity at 100 nM (%) (hGPR40 receptor): 70%

SMILES: O=C(O)COc1ccc(NCc2cccc(-c3ccccc3Cl)c2)cc1F [Compound I-2, 2-(4-((2′-chloro-[1,1′-biphenyl]-3-methylene)amino)-2-fluorophenoxy)acetic acid]
- activation at 0.1 µM (hGPR40 receptor): 84%
- EC50 (hGPR40 receptor): 0.0163 ± 0.0046 µM
- effect on oral glucose tolerance in mice (in words) (normal mice): significantly improve oral glucose tolerance
- blood glucose level at 15 min (normal mice; OGTT, n = 8): 6.24 ± 0.39
- blood glucose level at 0 min (normal mice; OGTT, n = 8): 4.25 ± 0.38
- blood glucose level at 30 min (normal mice; OGTT, n = 8): 6.73 ± 0.29
- blood glucose level at 60 min (normal mice; OGTT, n = 8): 4.28 ± 0.37
- blood glucose level at 120 min (normal mice; OGTT, n = 8): 4.17 ± 0.52
- AST, ALT and TBIL compared with STZ (blank) group (in words) [1]: equivalent to the blank group
- ALT (IU/L) [1]: 47 ± 5.3 IU/L
- AST (IU/L) [1]: 118.43 ± 11.5 IU/L
- TBIL (IU/L) [1]: 2.61 ± 0.5 IU/L

SMILES: Cc1cc(OCCCS(C)(=O)=O)cc(C)c1-c1cccc(CNc2ccc(OCC(=O)O)c(F)c2)c1 [Compound I-12]
- activation at 0.1 µM (hGPR40 receptor): 68%

SMILES: O=C(O)COc1ccc(NCc2cccc(-c3ccccc3C(F)(F)F)c2)cc1F [Compound I-8, 2-(4-((2′-trifluoromethyl-[1,1′-biphenyl]-3-methylene)amino)-2-fluorophenoxy)acetic acid]
- activation at 0.1 µM (hGPR40 receptor): 86%
- EC50 (hGPR40 receptor): 0.0117 ± 0.0048 µM
- effect on oral glucose tolerance in mice (in words) (normal mice): significantly improve oral glucose tolerance
- blood glucose level at 15 min (normal mice; OGTT, n = 8): 6.73 ± 0.65
- blood glucose level at 0 min (normal mice; OGTT, n = 8): 4.46 ± 0.47
- blood glucose level at 30 min (normal mice; OGTT, n = 8): 6.82 ± 0.58
- blood glucose level at 60 min (normal mice; OGTT, n = 8): 5.17 ± 0.39
- blood glucose level at 120 min (normal mice; OGTT, n = 8): 4.26 ± 0.25
- AST, ALT and TBIL compared with STZ (blank) group (in words) [1]: equivalent to the blank group
- ALT (IU/L) [1]: 46.63 ± 6.2 IU/L
- AST (IU/L) [1]: 112.85 ± 17.76 IU/L
- TBIL (IU/L) [1]: 2.52 ± 0.3 IU/L

SMILES: Cc1cc(OCCCS(C)(=O)=O)cc(C)c1-c1cccc(COc2ccc3c(c2)OC[C@H]3CC(=O)O)c1 [TAK-875, reference compound]
- Agonistic activity at 100 nM (%) (hGPR40 receptor): 65%
- blood glucose level at 15 min (normal mice; OGTT, n = 8): 9.68 ± 0.46
- blood glucose level at 0 min (normal mice; OGTT, n = 8): 4.53 ± 0.25
- blood glucose level at 30 min (normal mice; OGTT, n = 8): 8.61 ± 0.45
- blood glucose level at 60 min (normal mice; OGTT, n = 8): 5.47 ± 0.56
- blood glucose level at 120 min (normal mice; OGTT, n = 8): 4.46 ± 0.57
- AST, ALT and TBIL compared with STZ (blank) group (in words) [1]: AST was higher than STZ group
- ALT (IU/L) [1]: 72.83 ± 8.4 IU/L
- AST (IU/L) [1]: 149.33 ± 15.6 IU/L
- TBIL (IU/L) [1]: 2.98 ± 0.4 IU/L

SMILES: Cc1cc(OC(F)(F)F)ccc1-c1cccc(CNc2ccc(OCC(=O)O)cc2)c1 [Compound I-30, 2-(4-((4′-trifluoromethoxy-2′-methyl-[1,1′-biphenyl]-3-methylene)amino)phenoxy)acetic acid]
- Agonistic activity at 100 nM (%) (hGPR40 receptor): 76%

SMILES: COc1cc(C)c(-c2cccc(CNc3ccc(OCC(=O)O)c(F)c3)c2)c(C)c1 [Compound I-20, 2-(4-((4′-methoxy-2′,6′-dimethyl-[1,1′-biphenyl]-3-methylene)amino)-2-fluorophenoxy)acetic acid]
- activation at 0.1 µM (hGPR40 receptor): 68%

SMILES: Cc1cc(OC(F)(F)F)cc(C)c1-c1cccc(CNc2ccc(OCC(=O)O)cc2)c1 [Compound I-29, 2-(4-((4′-trifluoromethoxy-2′,6′-dimethyl-[1,1′-biphenyl]-3-methylene)amino)phenoxy)acetic acid]
- Agonistic activity at 100 nM (%) (hGPR40 receptor): 62%

SMILES: Cc1cc(OC2CCCCC2)cc(C)c1-c1cccc(CNc2ccc(OCC(=O)O)c(F)c2)c1 [Compound I-44, 2(2-fluoro-4-(((4′-(cyclohexyloxy)-2′,6′-dimethyl-[1,1′-biphenyl]-3-yl)methyl)amino)phenoxy)acetic acid]
- melting point: 136 to 138 °C

The next lines start with results.

- activation at 0.1 µM (hGPR40 receptor): 85%
- EC50 (hGPR40 receptor): 0.0146 ± 0.0037 µM
SMILES: CCOc1ccc(-c2cccc(CNc3ccc(OCC(=O)O)c(F)c3)c2)c(C)c1 [Compound I-13]
- effect on oral glucose tolerance in mice (in words) (normal mice): significantly improve oral glucose tolerance
- blood glucose level at 15 min (normal mice; OGTT, n = 8): 7.25 ± 0.58
- blood glucose level at 0 min (normal mice; OGTT, n = 8): 4.61 ± 0.35
- blood glucose level at 30 min (normal mice; OGTT, n = 8): 7.03 ± 0.89
- blood glucose level at 60 min (normal mice; OGTT, n = 8): 5.25 ± 0.72
- blood glucose level at 120 min (normal mice; OGTT, n = 8): 4.38 ± 0.37
- AST, ALT and TBIL compared with STZ (blank) group (in words) [1]: equivalent to the blank group
- ALT (IU/L) [1]: 52.37 ± 5.3 IU/L
- AST (IU/L) [1]: 121.37 ± 13.2 IU/L
- TBIL (IU/L) [1]: 2.48 ± 0.5 IU/L

- activation at 0.1 µM (hGPR40 receptor): 79%
SMILES: CCOc1cc(C)c(-c2cccc(CNc3ccc(OCC(=O)O)c(F)c3)c2)c(C)c1 [Compound I-1, 2-(4-((4′-ethoxy-2′,6′-dimethyl-[1,1′-biphenyl]-3-methylene)amino)-2-fluorophenoxy) acetic acid]

- activation at 0.1 µM (hGPR40 receptor): 73%
SMILES: Cc1ccc(-c2cccc(CNc3ccc(OCC(=O)O)c(F)c3)c2)c(Cl)c1 [Compound I-5, 2-(4-((2′-chloro-4′-methyl-[1,1′-biphenyl]-3-methylene)amino)-2-fluorophenoxy)acetic acid]

- activation at 0.1 µM (hGPR40 receptor): 79%
SMILES: CCOc1ccc(-c2cccc(CNc3ccc(OCC(=O)O)cc3)c2)c(C)c1 [Compound I-31]

- activation at 0.1 µM (hGPR40 receptor): 80%
- EC50 (hGPR40 receptor): 0.0184 ± 0.0022 µM
SMILES: COc1ccc(-c2cccc(CNc3ccc(OCC(=O)O)c(F)c3)c2)c(C)c1 [Compound I-19]
- blood glucose level at 15 min (normal mice; OGTT, n = 8): 9.08 ± 0.62
- blood glucose level at 0 min (normal mice; OGTT, n = 8): 4.45 ± 0.56
- blood glucose level at 30 min (normal mice; OGTT, n = 8): 8.21 ± 0.39
- blood glucose level at 60 min (normal mice; OGTT, n = 8): 5.23 ± 0.21
- blood glucose level at 120 min (normal mice; OGTT, n = 8): 4.41 ± 0.44
- ALT (IU/L) [1]: 50.33 ± 4.6 IU/L
- AST (IU/L) [1]: 123.45 ± 7.8 IU/L
- TBIL (IU/L) [1]: 2.68 ± 0.3 IU/L

- activation at 0.1 µM (hGPR40 receptor): 75%
- EC50 (hGPR40 receptor): 0.0284 ± 0.0028 µM
SMILES: CCCOc1ccc(-c2cccc(CNc3ccc(OCC(=O)O)c(F)c3)c2)c(C)c1 [Compound I-15]

- activation at 0.1 µM (hGPR40 receptor): 67%
SMILES: CCCOc1cc(C)c(-c2cccc(CNc3ccc(OCC(=O)O)c(F)c3)c2)c(C)c1 [Compound I-9, 2-(4-((4′-propoxy-2′,6′-dimethyl-[1,1′-biphenyl]-3-methylene)amino)-2-fluorophenoxy) acetic acid]

- melting point: 132 to 135 °C
SMILES: CCCCCCOc1cc(C)c(-c2cccc(CNc3ccc(OCC(=O)O)c(F)c3)c2)c(C)c1 [Compound I-42, 2(2-fluoro-4-(((4′-(hexyloxy)-2′,6′-dimethyl-[1,1′-biphenyl]-3-yl)methyl)amino)phenoxy)acetic acid]
